# Test results taken from US4952564A, “Antiallergic agent” (Dainippon Ink and Chemicals, Inc., priority 1986, dated 1990).
# Columns and labels:
# [1] = used in treatment of gastric ulcers; cited from earlier work
# [2] = test system: rat peritoneal exudation cells; test: Inhibition effect on the liberation of histamine by compound 48/80; format: cell-based; conditions: for Liberation ratio of histamine (%): control 87.4, blank 9.3
# Method: 2. Inhibition effect of the medicine on the liberation of histamine by compound 48/80.
# (1) Preparation of rat peritoneal exudation cells
# 10 ml of Locke's solution containing 0.1% of bovine serum albumin was injected into the abdominal cavity of a rat which had been killed by exsanguination. The rat was lightly massaged, then subjected to an abdominal section so that an abdominal solution was collected. The abdominal cavity was also washed with 5 ml of the same solution and the washing solution was collected and mixed with the above abdominal solution. The abdominal solution was centrifuged at 500 rpm for 5 minutes, then 5 ml of cool Locke's solution was added to the sediment. After the sediment had been washed, 3 ml of cool Locke's solution was again added thereto to form a solution of rat peritoneal exudation cells.
# (2) Inhibition effect of medicine on the liberation of histamine by compound 48/80.
# 0.5 ml of Locke's solution and 1.0 ml of each of the solutions of isoliquiritigenin prepared to the concentration shown in Table 2 (the isoliquiritigenin was dissolved in a physiological saline solution containing 1% sodium bicarbonate, the resultant solution being diluted with Locke's solution) were added to 0.3 ml of the solution of rat peritoneal exudation cells obtained in (1) above and were incubated at 37° C. for 5 minutes. Then, 0.2 ml each of a Locke's solution of the compound 48/80 (1 mg/100 ml) was added to the solution and the mixture was incubated at 37° C. for 10 minutes. After the reaction was stopped by cooling, the obtained solution was centrifuged at 2,500 rpm for 10 minutes to be separated into 1.7 ml of supernatant and 0.3 ml of sediment. 0.1 ml of water and 0.2 ml of 100% trichloroacetic acid were added to the supernatant, and 1.5 ml of Locke's solution and the 100% trichloroacetic acid were added to the sediment which was then allowed to stand for 30 minutes at room temperature and was centrifuged at 3,000 rpm for 15 minutes. 0.35 ml of each of the supernatant and the supernatant of the sediment was taken and 1.65 ml of water and 0.4 ml of 1N sodium hydroxide were added in turn to each of the supernatants. 0.1 ml of 0.5% OPT (orthophthalaldehyde) methanol solution was added to each of the resultant solutions which were then allowed to react at room temperature for 4 minutes. After the reaction was stopped by the addition of 0.2 ml of 2M citric acid, the fluorescence of each of the reaction solutions was measured by a fluorophotometer. […]
# The inhibition ratio of isoliquiritigenin for the liberation of histamine by the compound 48/80 is calculated from the following equations: [formula]
# [3] = Side effects when administered for a long time; format: in vivo; conditions: no test described
# [4] = test system: ileum of the guinea pig; test: Schultz-Dale reaction (antigen-induced contraction of ileum of actively sensitized guinea pig); format: cell-based, guinea pig (Hartley)
# Method: The Schultz-Dale test and the inhibition effect of the compound of the present invention on the liberation of histamines by a compound 48/80 indicate that isoliquiritigenin has an antiallergic activity.
# (1) Active sensitization of guinea pig by antigenic egg-white albumin (EWA)
# After 1, 2 and 3 weeks, additional sensitization was conducted by injecting an equivalent mixed emulsion of a physiological saline solution of 4 mg/ml of EWA and complete Freund's adjuvant into the muscle at a ratio of 0.1 ml/100 g and the guinea pig was subjected to the Schultz-Dale reaction one week after the final sensitization.
# (2) Schultz-Dale reaction
# The ileum of the guinea pig which was actively sensitized in (1) above was extirpated and immediately soaked in Tyrode's solution to form a specimen of a length of 15 mm which was suspended at a tensile force of l.5 g in a Magnus' tube (10 ml) kept at a temperature of 37° C. Contraction of the ileum by 10^-6 mole of histamine. […] Then, after preincubation for about 2 minutes, 10 μg/ml of EWA was added to the Magnus' tube and the contraction of the ileum was recorded. As a control, the contraction of the ileum was measured by an operation which was similar to that of the above, except that the physiological saline solution of isoliquiritigenin containing 0.2% sodium bicarbonate was not applied. […]
# [5] = test system: ddY male mice; test: Acute toxicity (minimum lethal dose) in mice; format: in vivo; conditions: for minimum lethal dose: five 5-week-old ddY male mice
# Method: Isoliquiritigenin was orally or intra-peritoneally administered to five 5-week-old ddY male mice. Consequently, it was determined that the minimum lethal dose was not less than 3000 mg/kg (oral administration) or not less than 1000 mg/kg (intra-peritoneal administration).
structure (smiles),measurement,setting,value
"O=C(/C=C/c1ccc(O)cc1)c1ccc(O)cc1O [Isoliquiritigenin, isoliquiritigenin]",antiulcerous activity,[1],exhibits an antiulcerous activity
same,Liberation ratio of histamine (%),[2]; isoliquiritigenin 100 mg/ml,71.0%
same,Liberation ratio of histamine (%),[2]; isoliquiritigenin 300 mg/ml,32.7%
same,Liberation ratio of histamine (%),[2]; isoliquiritigenin 1000 mg/ml,9.2%
same,liberation of histamine from mast cells by compound 48/80,[2]; result in words,inhibits histamines from liberating mast cells by the compound 48/80
same,side effects,[3],few side effects
same,inhibition at 100 µM,"[4]; Cavia porcellus, 10^-4 mole, EWA 10 μg/ml, versus control, read-out: Inhibition ratio (%)",90.2%
same,contraction of the ileum of the guinea pig by histamine and SRS-A,[4]; result in words,inhibits the contraction of the ileum of the guinea pig by histamine and SRS-A
same,minimum lethal dose,[5]; intra-peritoneal administration,not less than 1000 mg/kg
same,minimum lethal dose,[5]; oral administration,not less than 3000 mg/kg
same,toxicity,[5]; result in words,very low toxicity
